Results from US9629830B2, “EphA4 inhibitors as neuroprotective agents” (The Hong Kong University of Science and Technology, priority 2013, dated 2017).

What was measured:
[1] = tested on: Aβ-triggered reduction of dendritic spines in hippocampal neurons; experiment: Dendritic spine analysis in Aβ-treated hippocampal neurons; format: cell-based, rat
Protocol: Cultured rat hippocampal neurons were transfected with GFP plasmid at 14-16 DIV and exposed to Aβ at 24-28 DIV for 24 h after treatment with 30 μM KYL peptide. The neurons were fixed with 4% paraformaldehyde and examined using confocal microscopy using a 63× objective lens as previously described^24.

[2] = target: T1, EphA4 (HT-22 cells) (Mus musculus, UniProt Q03137); experiment: Cell-based binding of biotinylated ephrin-A1 to the surface of HT-22 cells; details: 10 min pre-incubation; Rhy 300 μM, KYL 100 μM (FIG. 10); biotinylated ephrin-A1 0.5 μg/mL
T1 construct: HT-22 cells, a cell line that expresses EphA4; endogenous in cells; host or cells: HT-22 cells
T1 sequence (Q03137 20-986): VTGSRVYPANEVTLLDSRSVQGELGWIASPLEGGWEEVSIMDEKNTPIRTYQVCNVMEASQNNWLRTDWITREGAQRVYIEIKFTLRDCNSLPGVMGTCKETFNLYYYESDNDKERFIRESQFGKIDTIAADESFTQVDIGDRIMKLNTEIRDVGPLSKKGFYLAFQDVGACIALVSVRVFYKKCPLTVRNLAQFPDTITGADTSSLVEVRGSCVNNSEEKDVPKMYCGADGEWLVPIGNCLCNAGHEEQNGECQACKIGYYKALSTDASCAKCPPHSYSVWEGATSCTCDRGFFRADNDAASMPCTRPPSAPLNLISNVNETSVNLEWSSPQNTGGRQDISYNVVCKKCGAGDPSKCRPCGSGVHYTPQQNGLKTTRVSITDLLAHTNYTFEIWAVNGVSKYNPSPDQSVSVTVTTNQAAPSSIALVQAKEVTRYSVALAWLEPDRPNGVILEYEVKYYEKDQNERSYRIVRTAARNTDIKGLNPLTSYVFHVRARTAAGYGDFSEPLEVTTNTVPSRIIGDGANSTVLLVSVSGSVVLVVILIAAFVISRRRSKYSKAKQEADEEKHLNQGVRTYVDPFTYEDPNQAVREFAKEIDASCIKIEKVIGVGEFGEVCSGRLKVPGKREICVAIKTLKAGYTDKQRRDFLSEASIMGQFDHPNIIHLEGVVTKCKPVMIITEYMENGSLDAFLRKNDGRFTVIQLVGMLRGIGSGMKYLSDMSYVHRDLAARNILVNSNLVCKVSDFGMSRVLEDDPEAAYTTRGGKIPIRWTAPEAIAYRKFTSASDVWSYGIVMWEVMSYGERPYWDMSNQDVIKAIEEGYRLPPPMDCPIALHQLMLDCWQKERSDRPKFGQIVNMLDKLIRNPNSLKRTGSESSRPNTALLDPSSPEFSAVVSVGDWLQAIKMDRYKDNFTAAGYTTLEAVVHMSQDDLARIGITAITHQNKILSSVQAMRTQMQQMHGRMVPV
Protocol: HT-22 cells were seeded on poly-D-lysine coverslips. […] The cells were then fixed with 4% paraformaldehyde and then immunostained with Alexa Fluor 488-conjugated Streptavidin antibody (Molecular Probes) for surfacing labeling of biotinylated ephrin-A1.

[3] = tested on: Aβ-induced impairment of hippocampal LTP; experiment: HFS-induced LTP (fEPSP slope) in acute hippocampal slices treated with Aβ; format: cell-based, mouse
Protocol: Oligomeric Aβ (Aβ) was prepared as described previously^59,60. Briefly, 0.5 mg monomeric Aβ1-42 was dissolved in 22.2 μL dry DMSO and then diluted in ice-cold phenol-red free F-12 medium to yield a final Aβ concentration of 100 μM. The Aβ solution was incubated at 4° C. for 24 h and then centrifuged at 14,000×g for 10 min. The supernatant was frozen in liquid nitrogen and stored at −20° C. for up to 1 month. Unless specified, cultured neurons or hippocampal slices were typically treated with Aβ at 500 nM.
(§1) For LTP recordings, mouse brains were immediately dissected after sacrifice and soaked in ice-cold 95% O2/5% CO2 (aCSF)^58. Brain slices (300 μm thick) were prepared using a vibrating tissue slicer (HM650V; Thermo), and soaked in oxygenated buffer for 2 h at 32° C. The hippocampal regions were resected and placed at the center of a MED-P210A probe (Panasonic International Inc) with 64 embedded recording electrodes. The slices were then perfused with Aβ at 500 nM in oxygenated aCSF for 2 h before LTP induction^70. For treatment with EphA4 inhibitors, the slices were pretreated with peptides or chemicals for 1 h before application of Aβ. fEPSPs were recorded using a MED64 multichannel recording system, and the data were collected from the dendritic layer of area CA1 at a sampling rate of 10 kHz. For each slice, the baseline stimulus intensity was set at the level that elicited ˜50% of the maximum fEPSP response determined according to the input-output curve. LTP was induced by 3 trains of HFS (100 Hz, 1 s, delivered 30 s apart). The magnitude of LTP was quantified as a percentage change in the fEPSP slope (10%-90%) taken during the 60-min interval after LTP induction.

[4] = target: T2, EphA4 (Rattus norvegicus, UniProt D3ZZK3); experiment: Aβ-stimulated EphA4 tyrosine phosphorylation in acute hippocampal slices; format: cell-based; details: KYL 0.5 h pretreatment then Aβ 2 h
T2 construct: endogenous in cells; host or cells: primary rat cortical neurons (A5), primary rat hippocampal neurons (A7)
T2 sequence (D3ZZK3 20-986): as the sequence (Q03137 20-986) above, with S270T, K559Q, S874P counted along it
Protocol: Hippocampal synaptosomes were prepared as described previously^67. Acute hippocampal slices from P15-P17 rats were lysed in radioimmunoprecipitation assay (RIPA) buffer (1% Triton X-100, 1% sodium deoxycholate, 0.1% SDS, 150 mM NaCl, 10 mM sodium phosphate, 2 mM EDTA, and 0.2% sodium vanadate) with various protease inhibitors. For the Cdk5 kinase assay, cultured cortical neurons [16 days in vitro (DIV)] were lysed in lysis buffer A (20 mM Tris [pH 7.6], 150 mM NaCl, 1 mM EDTA, 1 mM EGTA, 1 mM NaF, and 0.5% Nonidet P-40) with various protease inhibitors. Western blot analysis was performed as described previously^24.
For the immunoprecipitation assay, lysates were immunoprecipitated with the corresponding antibody for 2 h at 4° C. followed by incubation with protein G Sepharose for 1 h at 4° C.^24. The samples were washed with RIPA buffer or buffer A and resuspended in SDS sample buffer. EphA4 tyrosine phosphorylation was detected by western blot analysis using 4G10 antibody.

[5] = tested on: APP/PS1 mutant mice; experiment: HFS-induced hippocampal LTP in WT and APP/PS1 mice after in vivo treatment; set-up: species or system mouse; details: KYL infused by osmotic pump (17 μg, ~3 weeks)
From the text: APP/PS1 double-transgenic mice were obtained from Jackson Laboratory (B6C3-Tg[APPswe, PSEN1dE9]85Dbo/J)^66. These mice were generated by incorporating a human/murine APP construct bearing the Swedish double mutation and the exon-9-deleted PSEN1 mutation (APPswe+PSEN1/dE9). APP transgenic mice (Tg2576) expressing a double mutant of human AβPP (Lys^670→Asn^670, Met^671→Leu^671) were also used^31. Both sexes were used for experiments, and all mice used in this study were produced by the Animal Care Facility of The Hong Kong University of Science and Technology. The genotype was confirmed by polymerase chain reaction analysis of tail biopsies. Four to five mice of the same sex were housed in a cage with food and water ad libitum with a 12-hour light/dark cycle.
To investigate the effect of blocking EphA4 signaling by KYL peptide in AD mice, 4-5-month-old AD transgenic mice were implanted with Alzet mini-osmotic pumps, model 1004, pumping its contents at 0.11 μL/h for 28 days. Pumps were loaded with either 0.23 μg/μL KYL peptide (17 μg) or vehicle solvent in artificial cerebrospinal fluid (CSF). The mini-osmotic pumps were adjusted intracerebroventricularly in the right hemisphere. EphA4 in the CA1 regions of APP/PS1 mice was knocked down by injecting vesicular stomatitis virus glycoprotein G-pseudotyped lentiviral particles with pFUGW-shEphA4 bilaterally into the corresponding regions as described previously^58.
as §1, with “The hippocampal regions were resected and placed at the center of a MED-P210A probe (Panasonic International Inc) with 64 embedded recording electrodes. The slices were then perfused with Aβ at 500 nM in oxygenated aCSF for 2 h before LTP induction^70.” left out, “LTP was induced by 3 trains of HFS (100 Hz, 1 s, delivered 30 s apart).” left out
WT and APP/PS1 mutant (Tg) mice were orally administered with corylin ([…]) by daily gavage for 3-4 weeks prior to LTP measurements. LTP induced by 3 trains of HFS (100 Hz for 1 s delivered 30 s apart) in the CA1 region of the SC pathway of the hippocampus was measured. The magnitude of LTP was quantified as the percentage change in the fEPSP slope (10-90%) taken during the 60-min interval after LTP induction.

[6] = tested on: EphA4-dependent growth cone collapse in hippocampal neurons; experiment: EphA4-dependent (ephrin-A1-stimulated) growth cone collapse assay; format: cell-based, rat; details: for ephrin-A1-stimulated growth cone collapse: cultured hippocampal neurons
Protocol: Ephrin-A1-Fc was pre-clustered with goat anti-human Fc antibody (1:4.5)^24 and incubated at room temperature for 60 min before use. The growth cone collapse assay was performed in hippocampal neurons with ephrin-A1 0.1 μg/mL as described previously^61.
For EphA4 clustering, neurons were stained with anti-EphA4 and anti-Tau-1 antibodies. For the growth cone collapse assay, neurons were stained with Alexa Fluor 555-conjugated phalloidin (Molecular Probes) for filamentous actin and anti-Tau-1 antibody for axons. Collapsed growth cones were scored in a double-blinded manner. The experiments were repeated at least 3 times, and >50 neurons were analyzed for each experiment. Data are presented as mean±SEM.
To screen for small molecule EphA4 inhibitors, the inventors performed a molecular docking analysis using a small molecule library. […] Their ability in inhibiting EphA4 inhibiting the EphA4-dependent growth cone collapse using cultured hippocampal neurons was performed.

[7] = tested on: Aβ-induced reduction of neurotransmission in hippocampal neurons; experiment: mEPSC recording in Aβ-treated cultured hippocampal neurons; format: cell-based, rat
Protocol: Primary cortical and hippocampal neurons were prepared from embryonic day 18-19 rat embryos as described previously^24. Briefly, cortical neurons (6×10^6 per plate) were plated on 100-mm culture dishes coated with poly-D-lysine (12.5 μg/mL; Sigma). Rat hippocampal neurons were seeded on 18-mm coverslips coated with poly-D-lysine (50 μg/mL) at a density of 0.5×10^5/18-mm coverslip for immunocytochemical analysis, 0.1×10^5/18-mm coverslip for growth cone collapse assay, or 1×10^5 or 1.5×10^5/18-mm coverslip for mEPSC recording. Neurons were fed Neurobasal medium (Invitrogen) supplemented with 2% B27 (Invitrogen). Acute brain slices were prepared from P15-P17 Sprague-Dawley rats. Briefly, the rats were rapidly decapitated, and their brains were immersed in ice-cold artificial cerebrospinal fluid (ACSF). The hippocampus was dissected, and 300-μm-thick slices were prepared using a vibratome (Lieca). The slices were then transferred into an incubating chamber containing circulating ACSF equilibrated with 95% O2+5% CO2 and held at room temperature for at least 2 h for recovery prior to experiments^65.
For miniature EPSC recordings, hippocampal neurons at ˜25-28 DIV were co-treated with or without 500 nM Aβ together with the testing reagents for 24 h. Whole-cell patch-clamp recordings were made at room temperature with external solution containing (in mM) 110 NaCl, 5 KCl, 2 CaCl2, 0.8 MgCl2, 10 HEPES, and 10 D-glucose (pH 7.4) as well as an internal solution containing (in mM) 135 CsCl2, 10 HEPES, 2 MgCl2, 4 NaATP, 0.4 NaGTP, and 0.5 EGTA (pH 7.2)^24,27. Picrotoxin ([…]) was included in the external solution to block GABAergic IPSCs along with 0.5 μM TTX to prevent action potential-evoked EPSCs. For miniature EPSC recordings, cells were held at −70 mV. The pipette resistances for these experiments were typically 3-5 MΩ, while series resistances were 15-20 MΩ. The minis from each cell was recorded for 1 min in each condition. The measurement of mEPSC was according to that described in Mini Analysis Program for measuring AMPA receptor EPSCs (Synaptosoft Inc.). Only recording epochs in which series and input resistances varied <10% were analyzed. Data are presented as the mean±SEM of at least 3 experiments.

[8] = target: T3, extracellular domain of EphA4 (Homo sapiens, UniProt P54764); experiment: In vitro pull-down of recombinant EphA4-Fc with biotinylated Rhy on streptavidin beads; format: binding; details: western blot
T3 construct: purchased R&D Systems
T3 sequence (P54764 20-547 limits assumed): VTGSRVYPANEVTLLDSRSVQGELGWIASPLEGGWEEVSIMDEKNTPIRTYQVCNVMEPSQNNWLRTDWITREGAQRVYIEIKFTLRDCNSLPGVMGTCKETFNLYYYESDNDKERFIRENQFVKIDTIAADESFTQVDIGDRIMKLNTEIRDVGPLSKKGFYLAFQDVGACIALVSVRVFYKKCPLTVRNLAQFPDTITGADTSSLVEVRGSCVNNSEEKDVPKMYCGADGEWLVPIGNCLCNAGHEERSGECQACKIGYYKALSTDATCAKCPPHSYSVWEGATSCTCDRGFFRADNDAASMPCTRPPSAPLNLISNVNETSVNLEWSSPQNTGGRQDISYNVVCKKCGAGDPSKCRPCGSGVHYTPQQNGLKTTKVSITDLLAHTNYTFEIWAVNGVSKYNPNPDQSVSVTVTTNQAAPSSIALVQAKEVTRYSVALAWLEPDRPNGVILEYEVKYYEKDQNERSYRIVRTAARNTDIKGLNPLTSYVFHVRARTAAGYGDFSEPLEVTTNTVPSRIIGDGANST
Protocol: For the pull-down analysis, Bio-Rhy was bound to streptavidin magnetic beads for 1 h, the beads was then incubated with recombinant EphA4-Fc or EphB2-Fc in the presence of 0.5% BSA for 1 h. After incubation, the beads were washed 4 times with DPBS and the presence of Eph in the complex was determined by western blot analysis.

[9] = target: EphA4 (Homo sapiens, UniProt P54764); experiment: Inhibition of EphA4 signaling (assay not specified)
Chain of EphA4 (Homo sapiens, UniProt P54764) (P54764 20-986, species assumed): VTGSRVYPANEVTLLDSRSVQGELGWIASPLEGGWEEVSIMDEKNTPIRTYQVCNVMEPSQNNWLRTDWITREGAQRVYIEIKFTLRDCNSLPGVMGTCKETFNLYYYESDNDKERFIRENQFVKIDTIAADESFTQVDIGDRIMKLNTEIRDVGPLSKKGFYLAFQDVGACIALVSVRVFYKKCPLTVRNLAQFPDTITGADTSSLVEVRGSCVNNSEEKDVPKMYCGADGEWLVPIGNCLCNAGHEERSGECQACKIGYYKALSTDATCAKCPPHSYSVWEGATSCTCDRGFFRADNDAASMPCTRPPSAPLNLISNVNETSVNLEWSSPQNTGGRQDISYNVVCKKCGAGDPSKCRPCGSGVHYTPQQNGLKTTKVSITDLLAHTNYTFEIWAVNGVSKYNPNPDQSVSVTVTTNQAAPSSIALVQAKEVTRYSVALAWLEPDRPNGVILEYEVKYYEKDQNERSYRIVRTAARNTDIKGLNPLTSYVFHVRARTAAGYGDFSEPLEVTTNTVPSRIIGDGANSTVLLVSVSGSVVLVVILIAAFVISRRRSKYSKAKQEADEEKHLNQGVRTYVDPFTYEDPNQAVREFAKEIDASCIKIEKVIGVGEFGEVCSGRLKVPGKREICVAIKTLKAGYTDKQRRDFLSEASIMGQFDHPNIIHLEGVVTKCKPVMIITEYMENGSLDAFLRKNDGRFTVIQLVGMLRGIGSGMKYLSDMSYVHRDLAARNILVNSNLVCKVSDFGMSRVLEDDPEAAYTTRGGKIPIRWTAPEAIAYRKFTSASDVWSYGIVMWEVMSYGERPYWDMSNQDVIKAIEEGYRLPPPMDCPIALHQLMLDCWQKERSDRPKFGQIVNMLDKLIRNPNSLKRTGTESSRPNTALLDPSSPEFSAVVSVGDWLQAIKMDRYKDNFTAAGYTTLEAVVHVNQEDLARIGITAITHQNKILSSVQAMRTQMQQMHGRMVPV

[10] = inhibitor (Cpd1 500 μM, Ros 10 μM) + Aβ, Aβ alone 818.1±28.2 ms
[11] = inhibitor alone (Cpd1 500 μM, Ros 10 μM), control 454.1±12.5 ms

## KYLPYWPVLSSL [KYL peptide, reference compound]
[1]; KYL peptide alone (30 μM), control 0.66±0.1/μm
  dendritic spine density: 0.55±0.13 /μm
[1]; co-treatment of Aβ (24 h) and KYL peptide (30 μM), Aβ alone 0.46±0.21/μm
  dendritic spine density: 0.61±0.18 /μm
[2]
  binding of ephrin-A1 to HT-22 cells: reduced the binding of ephrin-A1 to HT-22 cells
[3]; KYL peptide 100 μM + Aβ, Aβ alone 132±6.06%
  mean fEPSP slope, last 10 min after LTP induction: 174.9±9.0%
[3]; KYL peptide 100 μM alone, control 169±6.72%
  mean fEPSP slope, last 10 min after LTP induction: 164.6±5.7%
[4]
  Aβ-stimulated tyrosine phosphorylation of EphA4: abolished the Aβ-stimulated tyrosine phosphorylation of EphA4
[5]; APP/PS1 (Tg) mice, Tg Con 154.0±8.2%
  mean fEPSP slope, last 10 min after LTP induction: 181.9±8.6%
[5]; WT mice, WT Con 191.8±9.5%
  mean fEPSP slope, last 10 min after LTP induction: 190.1±6.9%

## Cc1ccc(C)n1-c1ccc(C(=O)O)c(O)c1 [Cpd1, 2-hydroxy-4-(2,5-dimethyl-1-pyrrolyl)benzoic acid, reference compound]
[6]
  ephrin-A1-stimulated growth cone collapse: also inhibited ephrin-A1-stimulated growth cone collapse
[6]; data not shown
  concentration at which ephrin-A1-stimulated growth cone collapse is inhibited: exceeding 10 μM
[7]; [10]
  mEPSC inter-event interval: 542.6 ± 15.4 ms
[7]; [11]
  mEPSC inter-event interval: 559.5 ± 16.6 ms

## CCC1CN2CCC3(C(=O)N(CCCCCCNC(=O)CCCCC4SCC5NC(=O)NC54)c4ccccc43)C2CC1C(=COC)C(=O)OC (centres unmarked) [Bio-Rhy]
[8]
  binding to the extracellular domain of EphA4 (pull-down, words): bound specifically to the extracellular domain of EphA4

## CC[C@H]1CN2CC[C@@]3(C(=O)Nc4ccccc43)[C@@H]2C[C@@H]1/C(=C\OC)C(=O)OC [IsoRhy, isorhynchophylline]
[9]
  inhibition of EphA4 signaling: inactive in inhibiting EphA4 signaling

## CC(C)[C@@H]1[C@H]2OC(=O)[C@@H]1[C@@H]1CC[C@@H]3CN(C)[C@H]2[C@@]31C [Dendrobine, dendrobine]
[6]
  ephrin-A1-stimulated growth cone collapse: inhibited ephrin-A1-stimulated growth cone collapse

## CC[C@H](CO)Nc1nc(NCc2ccccc2)c2ncn(C(C)C)c2n1 [Ros, roscovitine]
[7]; [10]
  mEPSC inter-event interval: 494.1 ± 11.7 ms
[7]; [11]
  mEPSC inter-event interval: 451.0 ± 11.2 ms
